# Assay results reported in PMC12566624, “A Second Opportunity for the Peptide-Based Analogues with γ-Lactam at the P1 Position: Human Cathepsin S Inhibition” (Pharmaceuticals, 2025).
# Target: T1, human cathepsin S (hCatS) (Homo sapiens, UniProt P25774)
# T1 construct: gene CTSS
# Assay: fluorogenic enzyme inhibition assay, Cbz-Val-Val-Arg-AMC substrate; Ki from IC50
# Format: biochemical
# T1 sequence (P25774 115-331): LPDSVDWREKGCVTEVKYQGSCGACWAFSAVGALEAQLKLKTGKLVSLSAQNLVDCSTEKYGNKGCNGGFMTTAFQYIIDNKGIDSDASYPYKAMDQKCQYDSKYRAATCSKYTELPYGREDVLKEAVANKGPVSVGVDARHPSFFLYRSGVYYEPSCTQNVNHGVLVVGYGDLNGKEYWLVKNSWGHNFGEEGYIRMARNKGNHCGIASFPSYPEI
row,Ki [nM],Compound
1,58.8 ± 3.6,CCCC[C@H](NC(=O)OCc1ccccc1)C(=O)N[C@H](/C=C/C(C)=O)C[C@@H]1CCNC1=O [SPR38]
2,45.1 ± 3.8,CC(=O)/C=C/[C@H](C[C@@H]1CCNC1=O)NC(=O)[C@H](CC1CC1)NC(=O)OCc1ccccc1 [SPR39]
3,10.7 ± 1.1,CC(=O)/C=C/[C@H](C[C@@H]1CCNC1=O)NC(=O)[C@H](CC1CCCCC1)NC(=O)OCc1ccccc1 [SPR41]
